Results on 26 compounds are retold here after BindingDB's records for doi:10.1021/jm0105833 (Harvard University, 2002).

Structures are written as SMILES. Numbered stars: 1 amine (or outer) side, 2 acyl side, 3 side chain; on linkers, the order of the positions; unused ones are H or OH. Square brackets hold non-standard residues; d marks the D form. Peptide text beside a SMILES is read from it. Phe(ψ(S)CH(OH)CH2N)Pro = O=C([C@@H]1CCCN1C[C@H](O)[C@H](Cc1ccccc1)N[*:1])[*:2]; Nle = CCCC[C@H](N)C(=O)O; Orn = NCCC[C@H](N)C(=O)O

In assay [1] the target is Human immunodeficiency virus type 1 protease (Human immunodeficiency virus 1, UniProt Q72874). The experiment in a line: Affinity for HIV Protease.
The target in assay [2] is T1, Fatty acid-binding protein, intestinal (Homo sapiens, UniProt P12104).
T1 sequence (P12104 whole entry): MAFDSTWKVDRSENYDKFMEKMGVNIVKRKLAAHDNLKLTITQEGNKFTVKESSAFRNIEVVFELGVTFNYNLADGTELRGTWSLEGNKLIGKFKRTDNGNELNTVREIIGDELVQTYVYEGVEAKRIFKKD
In words: Binding affinity against Fatty acid-binding protein.

Assay [3] concerns the target T2, Thermolysin (Bacillus thermoproteolyticus, UniProt P00800).
T2 sequence (P00800 whole entry): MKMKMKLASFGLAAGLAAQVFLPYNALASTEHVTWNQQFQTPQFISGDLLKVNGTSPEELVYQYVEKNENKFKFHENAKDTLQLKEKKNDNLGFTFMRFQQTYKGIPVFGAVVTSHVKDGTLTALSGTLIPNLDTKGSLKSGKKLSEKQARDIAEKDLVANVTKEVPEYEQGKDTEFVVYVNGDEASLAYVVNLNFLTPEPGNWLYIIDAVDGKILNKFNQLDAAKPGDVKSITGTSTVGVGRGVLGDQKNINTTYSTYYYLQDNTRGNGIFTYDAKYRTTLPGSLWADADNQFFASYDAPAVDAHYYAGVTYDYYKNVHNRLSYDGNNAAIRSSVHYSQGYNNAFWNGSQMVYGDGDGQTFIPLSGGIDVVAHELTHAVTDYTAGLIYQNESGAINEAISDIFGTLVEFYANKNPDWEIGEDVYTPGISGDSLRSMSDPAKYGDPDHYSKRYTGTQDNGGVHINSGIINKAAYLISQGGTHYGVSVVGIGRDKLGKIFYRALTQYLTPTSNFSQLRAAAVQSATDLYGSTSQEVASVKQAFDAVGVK
The experiment in a line: Binding affinity against Thermolysin.

Assay [4] concerns the target Purine nucleoside phosphorylase (Homo sapiens) (UniProt P00491). The experiment in a line: Binding affinity against Purine Nucleoside Phosphorylase.
The target in assay [5] is Serine protease 1 (Homo sapiens, UniProt P07477). In words: Binding affinity against trypsin.
The target of assay [6] is Prothrombin (Homo sapiens, UniProt P00734). In words: Binding affinity against thrombin.
The target in assay [7] is T3, Mast cell carboxypeptidase A (Homo sapiens, UniProt P15088).
T3 sequence (P15088 whole entry): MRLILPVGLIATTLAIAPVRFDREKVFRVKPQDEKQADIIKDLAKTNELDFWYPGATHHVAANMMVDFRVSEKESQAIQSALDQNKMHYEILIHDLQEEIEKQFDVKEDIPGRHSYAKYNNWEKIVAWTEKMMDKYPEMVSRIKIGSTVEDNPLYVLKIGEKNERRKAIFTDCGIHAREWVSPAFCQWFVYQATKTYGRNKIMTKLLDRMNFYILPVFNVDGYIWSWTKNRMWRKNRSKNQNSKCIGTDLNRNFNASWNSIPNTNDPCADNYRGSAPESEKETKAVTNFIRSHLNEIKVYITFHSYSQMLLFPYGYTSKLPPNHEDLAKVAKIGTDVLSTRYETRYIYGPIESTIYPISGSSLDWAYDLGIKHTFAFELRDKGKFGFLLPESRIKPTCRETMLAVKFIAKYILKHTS
The experiment in a line: Binding affinity against Carboxypeptidase A.

Sequence of Purine nucleoside phosphorylase (Homo sapiens) (P00491 whole entry, looked up): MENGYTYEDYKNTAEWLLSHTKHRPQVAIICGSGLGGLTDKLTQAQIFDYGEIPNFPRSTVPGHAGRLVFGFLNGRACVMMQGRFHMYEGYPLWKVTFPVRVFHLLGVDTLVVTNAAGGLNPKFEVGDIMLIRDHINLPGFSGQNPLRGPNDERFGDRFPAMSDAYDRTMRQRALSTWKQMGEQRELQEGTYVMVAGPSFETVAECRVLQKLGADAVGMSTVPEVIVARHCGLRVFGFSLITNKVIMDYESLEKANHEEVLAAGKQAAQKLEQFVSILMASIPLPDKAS
Sequence of Serine protease 1 (P07477 whole entry): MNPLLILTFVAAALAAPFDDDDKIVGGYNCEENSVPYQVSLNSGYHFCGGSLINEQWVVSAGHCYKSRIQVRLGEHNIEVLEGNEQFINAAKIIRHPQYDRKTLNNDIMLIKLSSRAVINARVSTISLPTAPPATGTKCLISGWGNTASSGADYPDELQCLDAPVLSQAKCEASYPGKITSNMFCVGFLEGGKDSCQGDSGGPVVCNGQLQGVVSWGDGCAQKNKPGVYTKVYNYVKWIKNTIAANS

For `O=C1N(Cc2ccc3ccccc3c2)[C@H](Cc2ccccc2)[C@H](O)[C@@H](O)[C@@H](Cc2ccccc2)N1Cc1ccc2ccccc2c1`, in assay [1], binding was put at a Kd of 0.302 nM. That is a sub-nanomolar value.

Regarding `CCCCCCCCCCCCCCCC(=O)O`, the equilibrium dissociation constant (Kd) (commonly the free concentration of one partner at which half of the binding sites on the other are occupied at equilibrium, for simple one-to-one binding) in assay [2] was found to be 3.72 µM. That is a single-digit micromolar value.

`CC(C)C[C@H](NC(CCc1ccccc1)C(=O)O)C(=O)N[C@@H](Cc1c[nH]c2ccccc12)C(=O)O` (stereo partly specified): the Kd in assay [3] turned out to be 0.074 µM.

The compound `O=P(O)(O)OP(=O)(O)OC[C@H]1O[C@@H](n2cnc3cncnc32)[C@H](O)[C@@H]1O` registered a Kd in assay [4] of 0.603 µM. In other words, the sub-micromolar range.

Take `O=P(O)(O)OP(=O)(O)OP(=O)(O)OP(=O)(O)OC[C@H]1O[C@@H](n2cnc3cncnc32)[C@H](O)[C@@H]1O`: binding in assay [4] was put at a Kd of 1.41 µM.

`O=P(O)(O)OP(=O)(O)OP(=O)(O)OP(=O)(O)OP(=O)(O)OC[C@H]1O[C@@H](n2cnc3cncnc32)[C@H](O)[C@@H]1O` gave an equilibrium dissociation constant (Kd) in assay [4] of 1.1 µM.

Regarding `CC[C@H](C)[C@H](NC(=O)[C@@H]1CCCN1C[C@H](O)[C@H](Cc1ccccc1)NC(=O)[C@H](CC(N)=O)NC(=O)[C@H](CC(C)C)NC(=O)[C@H](CO)NC(C)=O)C(=O)N[C@H](C(=O)OC)C(C)C` (Ac-SLN[Phe(ψ(S)CH(OH)CH2N)Pro]IV-OMe), the Kd in assay [1] came to 0.234 nM. This counts as sub-nanomolar.

`CCCC[C@H](NC(=O)[C@H](CCCC)NC(=O)[C@@H](NC(=O)[C@@H](NC(C)=O)[C@@H](C)O)[C@@H](C)CC)C(=O)N[C@@H](CCCN)C(=O)N[C@@H](CCCN=C(N)N)C(N)=O` (Ac-TI[Nle][Nle][Orn]R-NH2) showed a Kd in assay [1] of 776 nM.

In assay [5], `NCCCCc1ccccc1` [4-Phenyl-butylamine] returned a dissociation constant Kd of 20000 µM.

On to `N=C(N)NCCC[C@H](NC(=O)[C@@H]1CCCN1C(=O)[C@@H](N)Cc1ccccc1)C(=O)O` [5-amino(imino)methylamino-2-[1-[2-amino-3-phenyl-(2S)-propanoyl]-(5S)-dihydro-1H-5-pyrrolylcarboxamido]-(2S)-pentanoic acid], for which, in assay [6], the equilibrium dissociation constant (Kd) came to 0.575 µM.

Compound `CC(C)[C@H](NC(=O)N(C)Cc1ccccn1)C(=O)N[C@@H](Cc1ccccc1)[C@@H](O)[C@H](O)[C@H](Cc1ccccc1)NC(=O)[C@@H](NC(=O)N(C)Cc1ccccn1)C(C)C` [(2S)-N-[(2S,3R,4R,5S)-3,4-dihydroxy-5-[(2S)-3-methyl-2-{[methyl(pyridin-2-ylmethyl)carbamoyl]amino}butanamido]-1,6-diphenylhexan-2-yl]-3-methyl-2-{[methyl(pyridin-2-ylmethyl)carbamoyl]amino}butanamide] registered a dissociation constant (Kd) in assay [1] of 0.977 nM.

The compound `CC(C)[C@H](NC(=O)N(C)Cc1ccccn1)C(=O)N[C@@H](Cc1ccccc1)[C@H](O)[C@H](O)[C@H](Cc1ccccc1)NC(=O)[C@@H](NC(=O)N(C)Cc1ccccn1)C(C)C` [(2S)-N-[(2S,3R,4S,5S)-3,4-dihydroxy-5-[(2S)-3-methyl-2-{[methyl(pyridin-2-ylmethyl)carbamoyl]amino}butanamido]-1,6-diphenylhexan-2-yl]-3-methyl-2-{[methyl(pyridin-2-ylmethyl)carbamoyl]amino}butanamide] yielded a Kd in assay [1] of 0.0832 nM.

The compound `CC(C)[C@H](NC(=O)N(C)Cc1ccccn1)C(=O)N[C@@H](Cc1ccccc1)C[C@@H](O)[C@H](Cc1ccccc1)NC(=O)[C@@H](NC(=O)N(C)Cc1ccccn1)C(C)C` [(2S)-N-[(2S,3R,5S)-3-hydroxy-5-[(2S)-3-methyl-2-{[methyl(pyridin-2-ylmethyl)carbamoyl]amino}butanamido]-1,6-diphenylhexan-2-yl]-3-methyl-2-{[methyl(pyridin-2-ylmethyl)carbamoyl]amino}butanamide] registered a Kd in assay [1] of 0.0347 nM.

In assay [3], `CC(C)C[C@H](NP(=O)(O)O)C(N)=O` [(P-Leu-NH2) (1-Carbamoyl-3-methyl-butyl)-phosphoramidic acid] came in with a Kd of 1.29 µM.

Take `CC(C)C[C@H](N)C(=O)NO` [(S)-2-Amino-4-methyl-pentanoic acid hydroxyamide]: in assay [3], the equilibrium dissociation constant (Kd) turned out to be 191 µM. This Kd lies about 150-fold higher than the previous one.

`CC(C)C[C@H](NP(=O)(O)O[C@@H]1O[C@@H](C)[C@H](O)[C@@H](O)[C@H]1O)C(=O)N[C@@H](Cc1c[nH]c2ccccc12)C(=O)O` [(S)-2-{(R)-2-[Hydroxy-((2R,3R,4R,5R,6S)-3,4,5-trihydroxy-6-methyl-tetrahydro-pyran-2-yloxy)-phosphorylamino]-4-methyl-pentanoylamino}-3-(1H-indol-3-yl)-propionic acid] registered a Kd in assay [3] of 0.028 µM.

With `NCCCC[C@H](NC(=O)CN)C(=O)O` [(S)-6-Amino-2-(2-amino-acetylamino)-hexanoic acid] (H-Gly-Lys-OH), the equilibrium dissociation constant (Kd) in assay [7] came out at 129 µM.

As to `C=CO` [E1203], in assay [1], binding was characterised by a dissociation constant (Kd) of 3.9 nM.

In the case of `CC1(C)S[C@H]([C@H](NC(=O)Cc2ccccc2)C(=O)NCc2ccccc2)N[C@H]1C(=O)N[C@@H](CO)Cc1ccccc1` [GR-126045], binding in assay [1] was characterised by a dissociation constant (Kd) of 7.9 nM.

Compound `CC1(C)SC(C(NC(=O)Cc2ccccc2)C(=O)NCc2ccccc2)NC1C(=O)NC(Cc1ccccc1)C(O)CC(=O)NCC1=NC2C=CC=CC2=N1` (stereo unspecified) [GR-137615] had a dissociation constant (Kd) in assay [1] of 0.204 nM.

On to `CC(C)[C@H](NC(=O)N(C)Cc1ccccn1)C(=O)N[C@@H](Cc1ccccc1)[C@H](O)[C@@H](O)[C@H](Cc1ccccc1)NC(=O)[C@@H](NC(=O)N(C)Cc1ccccn1)C(C)C` [JMC51852 Inhibitor PP], for which, in assay [1], the Kd worked out at 0.0759 nM.

Turning to `O=C(N[C@H]1c2ccccc2C[C@H]1O)[C@H](Cc1ccccc1)CC(O)C[C@@H](Cc1ccccc1)C(=O)N[C@H]1c2ccccc2C[C@H]1O` [L-700417], the Kd in assay [1] worked out at 0.708 nM.

`O=[N+]([O-])Nc1ccccc1` [Nitroanilide]: the affinity in assay [3], expressed as Kd, was 0.427 µM.

In assay [1], `COC(=O)[C@@H](NC(=O)[C@@H](NC(=O)[C@H](C)N1CCC([C@H](C)NC(=O)[C@H](C)N)=C[C@@H](Cc2ccccc2)C1)C(C)C)C(C)C` [SB-203238] came in with a Kd of 427 nM.

On to `CC(C)CN(C[C@@H](O)[C@H](Cc1ccccc1)NC(=O)O[C@H]1CCOC1)S(=O)(=O)c1ccc(N)cc1` [VX-478], for which the equilibrium dissociation constant (Kd) in assay [1] was found to be 0.589 nM.

As to `CC(C)[C@H](N)C(=O)N[C@@H](Cc1c[nH]c2ccccc12)C(=O)O` [Val-Trp] (H-Val-Trp-OH), in assay [3], the affinity, expressed as Kd, was 1.23 µM.
